# “Also recorded” adds a separate entry of the source. Where a SMILES comes first, the peptide text is derived from it. Primed or numbered codes have the meaning given here. Where no end group is shown, it is not given here. [ ]: non-standard residue; d: D form. PEG11 = NCCOCCOCCOCCOCCOCCOCCOCCOCCOCCOCCOCCC(=O)O; PEG11′ = not defined here
# How the values were obtained:
# cellular receptor = experiment: Receptor recycle vs new receptor synthesis in MGS internalization; assay type: cell-based
# EphA2 [1] = target: T1, EphA2 (Homo sapiens, UniProt P29317); experiment: MGS_H1299.2 V4 binding to purified EphA2; conditions: EphA2 study
# T1 construct: endogenous in cells
# T1 sequence (P29317 24-976, species assumed): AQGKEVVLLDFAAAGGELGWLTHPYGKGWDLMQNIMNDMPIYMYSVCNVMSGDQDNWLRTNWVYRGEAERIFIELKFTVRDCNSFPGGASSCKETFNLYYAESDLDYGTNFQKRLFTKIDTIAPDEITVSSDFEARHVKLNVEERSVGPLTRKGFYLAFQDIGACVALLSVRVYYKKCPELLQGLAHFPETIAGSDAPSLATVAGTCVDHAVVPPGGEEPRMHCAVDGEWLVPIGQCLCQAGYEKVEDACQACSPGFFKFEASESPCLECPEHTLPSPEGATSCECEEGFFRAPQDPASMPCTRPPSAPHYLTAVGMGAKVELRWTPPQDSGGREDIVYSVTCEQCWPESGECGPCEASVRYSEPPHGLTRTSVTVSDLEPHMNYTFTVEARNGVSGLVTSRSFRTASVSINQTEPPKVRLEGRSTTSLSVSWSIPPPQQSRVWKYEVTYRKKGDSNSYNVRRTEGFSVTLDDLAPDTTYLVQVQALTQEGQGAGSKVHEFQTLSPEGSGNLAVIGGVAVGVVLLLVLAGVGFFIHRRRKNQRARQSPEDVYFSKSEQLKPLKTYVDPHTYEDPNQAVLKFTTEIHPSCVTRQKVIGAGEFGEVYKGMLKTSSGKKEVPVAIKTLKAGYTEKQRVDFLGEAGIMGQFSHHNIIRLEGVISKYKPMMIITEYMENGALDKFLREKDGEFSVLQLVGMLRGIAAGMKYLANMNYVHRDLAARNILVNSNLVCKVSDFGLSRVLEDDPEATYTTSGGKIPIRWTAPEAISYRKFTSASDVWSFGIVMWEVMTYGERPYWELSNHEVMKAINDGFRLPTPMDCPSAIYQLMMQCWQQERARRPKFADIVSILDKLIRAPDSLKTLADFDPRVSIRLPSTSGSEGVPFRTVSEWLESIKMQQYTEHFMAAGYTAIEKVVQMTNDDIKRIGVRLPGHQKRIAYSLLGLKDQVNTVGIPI
# Text: (§1) The cellular receptor for MGS_H1299.2 v4 is EphA2. The following results were obtained during a study on EphA2.
# EphA2 [2] = target: T1, EphA2; experiment: EphA2 dependence of MGS_H1299.2 V4 cell binding and internalization; assay type: cell-based
# Text: as §1
# [3] = system: non-small cell lung cancer cells; experiment: Cellular location of MGS, non-small cell lung cancer cells; assay type: cell-based; conditions: Intracellular = uptake confirmed, exact compartment not determined
# Text: (§2) The FOX-Three Platform has already been validated for targeting of cells and subcellular components. A number of validated MGSs are in various stages of development (Tables 1 and 2) for a variety of cell targeting systems. Methods of conjugating a variety of payloads to the peptide MGSs have been established without disrupting their targeting ability. […] While cell targeting has been established and there are a number of competing antibody-based technologies for targeting the surfaces of target cells, intracellular MGSs were not previously known. […] For example, delivery of a MAb intended to bind to proteins involved in DNA replication in the cell nucleus will be therapeutically ineffective if trapped in the Golgi or other locations in the cell. The FOX-Three screening process was recently refined to include subcellular location targeting as a selection criteria. MGSs have been isolated that accumulate in lysosomes, autophagosomes, and Golgi inside cancer cells, as well as target the plasma membrane (FIG. 3).
# viable cells in culture = experiment: Cellular uptake of MGS-conjugated MAb (flow cytometry); assay type: cell-based
# Method: Peptide MGS with a biotin tag (“handle”) was coupled to an anti-biotin antibody. The antibody was labeled with a fluorescent tag. Panel A. MGS peptide-antibody was incubated with viable cells in culture. Uptake of the antibody into the cells was determined by flow cytometry and normalized to antibody uptake with no MGS peptide. Panel B. Uptake of the antibody was determined by fluorescent microscopy and is indicated by red “dots” in the left panel. The MGS peptide can deliver the antibody to the desired location. Using a MGS peptide that internalizes and directs cargo to the Golgi apparatus in the cell, an antibody was delivered to that subcellular compartment. Panel C. MGS peptide-Antibody was injected I.V. into a tumor bearing mouse. At set times points, near-infrared imaging was used to determine uptake of the antibody in the tumor.
# A small peptidic-MGS delivers a large monoclonal antibody into a cell in vitro and in vivo. Small peptides would not be able to carry a MAb that is almost greater than 60-times its molecular weight. Cells were treated with a MAb alone and no cellular uptake occurred. But when that MAb was conjugated to one of the identified MGS peptides, a […] increase in cellular uptake was seen.
# Peptidic-MGSs can deliver a MAb and increases cellular uptake by 20-380 (FIG. 4A). Peptidic-MGS can deliver a MAb to a discrete subcellular location as dictated by the MGS. […]
# cancer cell = experiment: Delivery of cell impermeable protein-toxin, cancer cell death; assay type: cell-based; conditions: peptide delivering a cell impermeable protein-toxin
# Text: (§3) The peptide EHPWFNMWSWATQVQE (SEQ ID NO:38) (H2009.2) has been pushed forward first.
# [4] = system: non-small cell lung cancer cells; experiment: Binding to non-small cell lung cancer cells versus normal control cells; assay type: cell-based
# Text: as §3
# NSCLC cell lines = experiment: Cellular uptake kinetics of valency versions of HCC15.2; assay type: cell-based; conditions: 4 NSCLC cell lines
# Dendritic Cells = experiment: Cellular location of MGS, dendritic cells; assay type: cell-based; conditions: Intracellular = uptake confirmed, exact compartment not determined
# Text: as §2
# Lymphoma Cells = experiment: Cellular location of MGS, lymphoma cells; assay type: cell-based
# Text: as §2
# Cardiomyocytes = experiment: Cellular location of MGS, cardiomyocytes; assay type: cell-based; conditions: Intracellular = uptake confirmed, exact compartment not determined
# Text: as §2
Molecule,Cellular Location [3],also measured
"CC(=O)N[C@@H](Cc1ccc(O)cc1)C(=O)N[C@@H](C)C(=O)N[C@@H](C)C(=O)N[C@@H](Cc1c[nH]c2ccccc12)C(=O)N1CCC[C@H]1C(=O)N[C@@H](C)C(=O)N[C@@H](CO)C(=O)NCC(=O)N[C@@H](C)C(=O)N[C@@H](Cc1c[nH]c2ccccc12)C(=O)N[C@H](C(=O)NCCOCCOCCOCCOCCOCCOCCOCCOCCOCCOCCOCCC(=O)N[C@@H](CS)C(N)=O)[C@@H](C)O [MGS_H1299.2 V4, CH3CO—YAAWPASGAWT—PEG11—C—NH2] (Ac-YAAWPASGAWT[PEG11]C-NH2)",–,fate of the bound cellular receptor upon internalization (cellular receptor): primarily degraded upon internalization; competition with EprhrinA1 for binding (EphA2 [1]): compete for binding; EphA2 internalization and co-localization (EphA2 [2]): induces EphaA2 internalization and co-localizes with the receptor in lysosome; peptide binding to cells (EphA2 [2]; increasing EphA2 in cells): increases MGS_H1299.2 V4 binding; peptide binding to cells (EphA2 [2]; reduction of EphA2 in cells): abrogates MGS_H1299.2 V4 binding
AHTIDDEWASYHMQQWNSPP [MGS_H2009.4],MGS_H2009.4_Golgi/ER,–
ATEPRKQYATPRVFWTDAPG [MGS_HCC15.1],MGS_HCC15.1_Intracellular,–
CH3CO—FHAVPQSFYT—PEG11—C—NH2 (Ac-FHAVPQSFYT[PEG11′]C-NH2) [HCC15.2 v8],–,fate of the bound cellular receptor upon internalization (cellular receptor): primarily degraded upon internalization
CH3CO—LQWRRNFGVWARYRL—PEG11—C—NH2 (Ac-LQWRRNFGVWARYRL[PEG11′]C-NH2) [HCC15.1 v4],–,fate of the bound cellular receptor upon internalization (cellular receptor): primarily degraded upon internalization
CH3CO—RGDLATLRQL—PEG11—YC—NH2 (Ac-RGDLATLRQL[PEG11′]YC-NH2) [MGS_H2009.1 v4],–,fate of the bound cellular receptor upon internalization (cellular receptor): rapidly recycled back to the cell surface
EAMNSAEQSAAVVQWEKRRI [MGS_H460.1],MGS_H460.1_PlasmaMembrane,–
EHPWFNMWSWATQVQE [MGS_H2009.2],MGS_H2009.2_Lysosome,intracellular delivery of MAb (viable cells in culture): delivers a MAb intracellularly; potency to induce cell death (cancer cell): 80 nM; cell binding specificity [4]: binds to 3 different non-small cell lung cancer cells with minimal binding to normal control cells
FAAKRAEWWDPGQLWDAVWN [MGS_H1993.2],MGS_H1993.2_Intracellular,–
FEEFYSRQSNTIPYPQQYKG [MGS_H2009.5],MGS_H2009.5_ER/Lysosome,–
FHAVPQSFYTAP [MGS_HCC15.2],MGS_HCC15.2_Intracellular,change of peptide affinity with valency (NSCLC cell lines; dimer): significant enhancement of peptide affinity with dimerization; change of peptide affinity with valency (NSCLC cell lines; tetramer): modest improvement upon tetramerization
GPEDTSRAPENQQKTFHRRW [MGS_XS52.1],–,Cellular Location (Dendritic Cells): MGS_XS52.1_Intacellular
KSREHVNNSACPSKRITAAL [MGS_A20.2],–,Cellular Location (Lymphoma Cells): MGS_A20.2_Plasma Membrane
LQWRRDDNVHNFGVWARYRL (Ac-LQWRRDDNVHNFGVWARYRL) [MGS_1299.3],MGS_1299.3_Lysosome/; also recorded: Autophagosomes,–
MDGATWWTQLDPLLVWEGET [MGS_H1993.5],MGS_H1993.5_Intracellular,–
MTVCNASQRQAHAQATAVSL [MGS_A549.1],MGS_A549.1_Intracellular,–
QEALEEWFWKMMPWSGPSGQ [MGS_H1993.3],MGS_H1993.3_Intracellular,–
RGDLATLRQLAQEDGVVGVR [MGS_H2009.1],MGS_H2009.1_Golgi,–
SADWFQGPAEWLLEGWMGPL [MGS_H1993.6],MGS_H1993.6_Intracellular,–
SAKTAVSQRVWLPSHRGGEP [MGS_A20.1],–,Cellular Location (Lymphoma Cells): MGS_A20.1_PlasmaMembrane
SVEYWGERMYYDVMESLGFS [MGS_H1993.1],MGS_H1993.1_Lysosome,–
TWTDFGQWPWPFGAEGTRAF [MGS_H1993.4],MGS_H1993.4_Pre-mitotic cells only,–
VSQTMRQTAVPLLWFWTGSL [MGS_H1299.1],MGS_H1299.1_Intracellular,–
WLSEAGPVVTVRALRGTGSW [MGS_PCM.1],–,Cellular Location (Lymphoma Cells): MGS_PCM.1_Plasma Membrane; Cellular Location (Cardiomyocytes): MGS_PCM.1_Intracellular
YAAWPASGAWTGTAPCSAGT [MGS_H1299.2],MGS_H1299.2_Intracellular,–
YPGSPTQYPSSMHEYHSSSE [MGS_H2009.3],MGS_H2009.3_Lysosome,–

# Source: patent US12441774B2, “Molecular guide system peptides and uses thereof” (SRI International, priority 2017, dated 2025)
